According to patent US20140271930A1, “NONINVASIVE METHOD FOR MEASURING METABOLITES FOR SKIN HEALTH” (priority 2013, published 2014):
Marks after values point to notes of the source that are not given here. Peptide text beside a SMILES is read from it.

Test system: scalp of dandruff and non-dandruff subjects
Experiment: Metabolite expression profiling (LC/MS/MS, GC/MS/MS) of scalp D-Squame tape strip extracts: non-dandruff, dandruff baseline, dandruff after 3 weeks anti-dandruff shampoo
Type: in vivo, human
Details: for Fold Change Wk 3 Sel vs Dandruff Baseline / Fold Change Wk 3 ZPT vs Dandruff Baseline / Fold Change Wk 3 ZPT vs Non-Dan Baseline / Fold Change Wk 3 Sel vs Non-Dan Baseline: metabolite level in scalp tape strips; for Fold Change Wk 3 Sel vs Dandruff Baseline / Fold Change Wk 3 ZPT vs Dandruff Baseline: standardized to soluble protein; for Fold Change Wk 3 Sel vs Dandruff Baseline: dandruff subjects after 3 weeks 1% selenium sulfide shampoo vs own baseline; for Fold Change Wk 3 ZPT vs Dandruff Baseline: dandruff subjects after 3 weeks 1% zinc pyrithione shampoo vs own baseline; for Fold Change Wk 3 ZPT vs Non-Dan Baseline: dandruff subjects after 3 weeks 1% ZPT shampoo vs non-dandruff subjects; for Fold Change Wk 3 Sel vs Non-Dan Baseline: dandruff subjects after 3 weeks 1% selenium sulfide shampoo vs non-dandruff subjects
From the text: In an embodiment, the use of an adhesive device can be used to achieve such sampling. In preparation for such a sampling study for a dandruff sampling, at a baseline visit, a qualified screening grader will complete adherent scalp flaking score (ASFS) grading for each subject and the highest flaking octant will be identified for tape strip sampling. The highest flaking octant will be sampled at baseline and at various time points during and after treatment with product. Tape strips samples will be collected from each subject at each time point (e.g., baseline and week 3).
The tape strip sampling procedure is repeated additional times, as needed, at the same site placing each D-Squame® tape disc on top of the prior sampled area. The D-Squame® tapes after sample collection are placed into the appropriately labeled wells in a labeled plate.
Following the sampling, an extraction and quantitation procedure is conducted. In an embodiment of the present invention, quantitation of small molecules from extracts of D-Squame® Tape Samples can be conducted via analysis by either LC/MS/MS or GC/MS/MS. In this embodiment of the present invention, the sample extraction in preparation for Metabolite expression profiling technology was performed.
The D-Squame® tape sample plates are removed from −80° C. freezer where they are stored following sample collection, and placed on dry ice. The tape strips are inserted into pre-labeled polypropylene collection tubes, adhesive side facing inward. Extraction buffer containing methanol and water is added to each collection tube and then extracted on ice using sonication for 15 min. If necessary, additional tapes are placed in the collection tube containing the extract solution and the extraction process is repeated as a means of concentrating the sample. Each extract solution is isolated from the tape strip and an aliquot of each sample is placed into a pre-labeled polypropylene collection tubes and frozen at −80° C. for metabolite expression profiling analysis. A separate aliquot is specified for soluble protein analysis using a BCA™ Protein Assay Kit. For this analysis, the aliquot consisting of methanol and water is taken to dryness under a gentle stream of nitrogen. The sample is resuspended in an appropriate aqueous buffer (e.g., PBS/SDS (1× PBS+0.2% SDS) and analyzed for soluble protein.
The extracts are analyzed by GC/MS/MS and LC/MS/MS in positive and negative ion mode. Chromatographic separation followed by full scan mass spectra and MS/MS spectra is carried out to record and quantify all detectable ions present in the samples. Metabolites with known chemical structure can be identified by matching the ions' chromatographic retention index and mass spectra fragmentation signatures with reference library entries created from authentic standard metabolites under the identical analytical procedure as the experimental samples. Welch's Two Sample t-tests and matched-pair t-tests are used to analyze the data. […] The statistical analyses are performed on natural log-transformed data to reduce the effect of any potential outliers in the data. Welch's Two Sample t-test comparisons are made between the means of each biochemical from the various groups listed at the top of the tables and are calculated using either or both of the statistical analysis software programs: Array Studio (Omicsoft, Inc) or “R” from the Free Software Foundation, Inc.
Subjects are evaluated by a qualified grader to establish their scalp status. Dandruff subjects are identified by their level of visible flaking as assessed by a qualified grader. Non-dandruff healthy scalp subjects are evaluated at baseline to establish normalized levels of each biomarker. In this study, there are 60 non-dandruff subjects that are evaluated at baseline. […] They are evaluated at baseline, and after 3 weeks of product usage.

[1] = dandruff subjects after 3 weeks treatment with Sel shampoo, metabolite level in scalp tape strip extract
[2] = dandruff subjects after 3 weeks treatment with ZPT shampoo, metabolite level in scalp tape strip extract

Compound | Mean Values WEEK 3 TRT Sel [1] | Mean Values WEEK 3 TRT ZPT [2] | Fold Change Wk 3 Sel vs Dandruff Baseline | Fold Change Wk 3 ZPT vs Dandruff Baseline | Fold Change Wk 3 ZPT vs Non-Dan Baseline | Fold Change Wk 3 Sel vs Non-Dan Baseline | Mean Values WEEK 3 TRT ZPT (relative metabolite level in scalp tape strips, dandruff subjects after 3 weeks 1% ZPT shampoo) | Mean Values WEEK 3 TRT Sel (relative metabolite level in scalp tape strips, dandruff subjects after 3 weeks 1% selenium sulfide shampoo)
CCCCCCCCCCCCCCC(=O)O [pentadecanoate (15:0), pentadecanoate] | 0.3057 | 0.5867 | 0.19* fold | 0.4* fold | 0.37* fold | 0.19* fold |  | 
CC[C@H](C)[C@H](NC(=O)[C@@H](N)CO)C(=O)O [serylisoleucine*] (H-Ser-Ile-OH) | 1.1161 | 0.9496 |  |  |  |  |  | 
O=C(O)/C=C/c1cnc[nH]1 [trans-urocanate] |  |  | 0.74* fold | 0.87 fold | 1.41 fold | 1.21 fold | 1.0096 | 0.8661
Eicosenoate [Eicosenoate (20:1n9 or 11)] | 0.202 | 0.3561 |  |  |  |  |  | 
dimethylarginine (SDMA + ADMA) | 0.8338 | 1.0243 |  |  |  |  |  | 
linolenate [alpha or gamma; (18:3n3 or 6)] |  | 0.8941 |  |  |  |  |  | 
